Assay results published in publication PMC11249637, “Interaction of the Atypical Tetracyclines Chelocardin and Amidochelocardin with Renal Drug Transporters” (ACS Pharmacology & Translational Science, 2024).

Assays:
mOct1 = target: T1, mOct1 (Mus musculus, UniProt O08966); assay: Two-point inhibition of mOct1-mediated MPP uptake in transfected HEK293 cells; type: in vitro ADME; settings: 1 and 10 μM; MPP 10 μM, 1 min
T1 construct: expressed in transfected cells; host or cells: HEK293
T1 sequence (O08966 1-556): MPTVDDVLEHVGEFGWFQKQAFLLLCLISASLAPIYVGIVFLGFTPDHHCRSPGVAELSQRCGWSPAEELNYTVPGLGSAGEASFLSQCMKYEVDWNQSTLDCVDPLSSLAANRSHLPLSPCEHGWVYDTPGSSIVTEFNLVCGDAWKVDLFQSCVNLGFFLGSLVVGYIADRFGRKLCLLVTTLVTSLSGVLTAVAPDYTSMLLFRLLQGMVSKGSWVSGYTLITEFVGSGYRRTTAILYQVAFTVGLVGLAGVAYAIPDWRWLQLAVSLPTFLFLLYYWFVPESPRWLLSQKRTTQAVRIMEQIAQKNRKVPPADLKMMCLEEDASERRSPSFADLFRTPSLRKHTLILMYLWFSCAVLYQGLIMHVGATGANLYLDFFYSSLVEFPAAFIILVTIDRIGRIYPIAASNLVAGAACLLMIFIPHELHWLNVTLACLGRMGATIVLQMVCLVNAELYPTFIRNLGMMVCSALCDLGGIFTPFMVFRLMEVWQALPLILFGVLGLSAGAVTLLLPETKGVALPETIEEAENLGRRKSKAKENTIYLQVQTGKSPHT
Description: (§1) Well-characterized mOct1-, mOct2-, mOat1-, mOat2-, mOat3-, mMate1-, hOAT1-, hOAT3-, hOAT4-, hMRP2-, mMdr1a- and mMdr1b-transfected HEK293 cells and the respective vector-transfected control HEK293 cells were used.[42],[51],[52] All HEK293 cells (transporter-transfected and vector-transfected) were cultured in DMEM (Sigma, high glucose, 10% FBS, 1% penicillin (10,000 Units/mL)/streptomycin (10 mg/mL)) at 37°C under 5% CO2 in humidified atmosphere. The cells were routinely checked for the absence of mycoplasma infection. For the preparation of HEK293 cell monolayers, 24-well plates were pretreated with a poly-D-lysine hydrobromide solution (0.1 mg/mL). […]
(§2) For the uptake assay, the growth medium was aspirated, and each well was rinsed three times with 0.5 mL of incubation buffer (HBSS supplemented with 20 mM HEPES, pH 7.4) and incubated for 20 min at 37 °C. […] Cells were solubilized with 0.6 mL of 1N NaOH overnight and transferred into scintillation vials. ^3H and ^14C contents were measured after the addition of 2.5 mL of scintillator in a liquid scintillation counter.
(§3) The cellular protein amount was determined in parallel for each cell line (vector- and transporter-transfected) from six wells in a different 24-well reference plate using the Bradford method. […]
(§4) The inhibitory effect (I(%)) was calculated according to the formula: [drawing 5] […]

[1] = parameters: method as in PMID 38047701; settings: PK samples; cited from earlier work
mMate1 = target: T2, mMate1 (Mus musculus, UniProt Q8K0H1); assay: Two-point inhibition of mMate1-mediated metformin uptake in transfected HEK293 cells; type: in vitro ADME; settings: 1 and 10 μM; metformin 20 μM, 1 min
T2 construct: expressed in transfected cells; host or cells: HEK293
T2 sequence (Q8K0H1 1-567): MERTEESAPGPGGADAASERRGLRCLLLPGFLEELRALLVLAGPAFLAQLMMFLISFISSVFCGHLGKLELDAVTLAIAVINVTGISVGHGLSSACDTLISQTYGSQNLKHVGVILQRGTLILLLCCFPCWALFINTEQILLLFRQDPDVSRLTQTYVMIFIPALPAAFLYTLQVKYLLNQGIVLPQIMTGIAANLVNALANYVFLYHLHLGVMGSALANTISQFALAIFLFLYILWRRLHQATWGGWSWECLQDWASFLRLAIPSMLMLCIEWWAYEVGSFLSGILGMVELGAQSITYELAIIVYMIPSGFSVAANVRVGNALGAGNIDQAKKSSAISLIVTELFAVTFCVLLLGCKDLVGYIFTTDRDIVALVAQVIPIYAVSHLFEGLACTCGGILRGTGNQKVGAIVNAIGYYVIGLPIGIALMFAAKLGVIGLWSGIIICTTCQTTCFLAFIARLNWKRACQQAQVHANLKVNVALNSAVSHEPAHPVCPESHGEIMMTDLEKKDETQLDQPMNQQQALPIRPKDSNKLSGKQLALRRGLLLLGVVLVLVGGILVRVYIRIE
Description: as §1, §2, §3, §4

SMILES | inhibitory effect on mOct1 (in words) (mOct1) | irreversible toxicity in histopathological analysis of kidneys and livers (in words) [1] | inhibitory effect on mMate1 (in words) (mMate1)
Cc1ccc2c(C)c3c(c(O)c2c1O)C(=O)[C@@]1(O)C(=O)C(C(N)=O)=C(O)[C@@H](N)[C@H]1C3 [CDCHD, amidochelocardin] | slight inverse inhibitory effect | has not been observed | did not have major effects
CC(=O)C1=C(O)[C@@H](N)[C@H]2Cc3c(c(O)c4c(O)c(C)ccc4c3C)C(=O)[C@@]2(O)C1=O [CHD, chelocardin] | No inhibitory effect | has not been observed | weak inhibitory effect
